Laboratory results published in US12528815B2, “5-amino-8-(4-pyridyl)-[1,2,4]triazolo[4,3-c]pyrimidin-3-one compounds for use against cancer” (Nxera Pharma UK Limited, priority 2020, dated 2026).

Assays:
[1] = biological target: T1, human adenosine A1 receptor (Homo sapiens, UniProt P30542); assay: Inhibition binding assay, human adenosine A1 receptor membranes, [3H]DPCPX; conditions: 1 nM [3H]DPCPX, 25° C., 1 h; IC50 converted to Ki with Cheng-Prusoff; read-out: A1 pKi (converted)
T1 construct: expressed in transfected cells; host or cells: HEK293 cells infected with BacMam (the same paragraph also labels the preparation CHO-hA1)
T1 sequence (P30542 1-326): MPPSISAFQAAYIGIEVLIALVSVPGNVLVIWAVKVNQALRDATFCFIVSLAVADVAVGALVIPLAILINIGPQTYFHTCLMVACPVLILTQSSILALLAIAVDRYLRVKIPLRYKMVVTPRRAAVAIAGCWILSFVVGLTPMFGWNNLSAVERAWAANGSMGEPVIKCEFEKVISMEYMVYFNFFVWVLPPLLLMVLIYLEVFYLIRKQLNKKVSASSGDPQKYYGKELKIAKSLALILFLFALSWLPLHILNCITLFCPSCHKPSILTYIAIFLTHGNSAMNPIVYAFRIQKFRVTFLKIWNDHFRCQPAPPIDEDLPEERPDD
In short: (§1)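 Membranes from BacMam-infected HEK293 cells (0.2 μg A2A, 1.4 μg A1) incubated 1 h at 25° C with test compound and 1 nM [3H]ZM241385 (A2A; 50 mM Tris-HCl pH 7.4) or [3H]DPCPX (A1; plus 100 mM NaCl, 10 mM MgCl2). Nonspecific: 1 μM CGS15943 or DPCPX. Filtration, scintillation; IC50 converted to Ki via Cheng-Prusoff.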

[2] = biological target: T2, human adenosine A2A receptor (Homo sapiens, UniProt P29274); assay: Inhibition binding assay, human adenosine A2A receptor membranes, [3H]ZM241385; conditions: 1 nM [3H]ZM241385, HEK293-hA2A membranes, 25° C., 1 h; IC50 converted to Ki with Cheng-Prusoff; read-out: A2A pKi (converted)
T2 construct: expressed in transfected cells; host or cells: HEK293 cells infected with BacMam
T2 sequence (P29274 whole entry): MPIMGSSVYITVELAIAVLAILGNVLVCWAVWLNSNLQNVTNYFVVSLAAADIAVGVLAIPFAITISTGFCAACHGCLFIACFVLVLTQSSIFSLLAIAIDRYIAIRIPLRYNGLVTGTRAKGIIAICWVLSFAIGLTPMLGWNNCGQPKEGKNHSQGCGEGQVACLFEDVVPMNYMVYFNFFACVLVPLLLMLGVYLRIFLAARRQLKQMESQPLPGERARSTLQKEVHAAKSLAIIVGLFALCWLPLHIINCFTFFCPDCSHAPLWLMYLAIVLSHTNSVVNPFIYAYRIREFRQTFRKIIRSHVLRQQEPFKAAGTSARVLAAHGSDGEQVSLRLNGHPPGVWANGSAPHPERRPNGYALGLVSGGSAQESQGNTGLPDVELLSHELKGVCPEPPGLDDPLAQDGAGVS
In short: as §1

human CB1 receptor = biological target: T3, human CB1 receptor (Homo sapiens, UniProt P21554); assay: CB1 receptor antagonism, agonist-induced cAMP modulation (HTRF) in transfected CHO cells; format: cell-based; conditions: read-out: Antag IC50
T3 construct: expressed in transfected cells; host or cells: CHO cells
T3 sequence (P21554 whole entry): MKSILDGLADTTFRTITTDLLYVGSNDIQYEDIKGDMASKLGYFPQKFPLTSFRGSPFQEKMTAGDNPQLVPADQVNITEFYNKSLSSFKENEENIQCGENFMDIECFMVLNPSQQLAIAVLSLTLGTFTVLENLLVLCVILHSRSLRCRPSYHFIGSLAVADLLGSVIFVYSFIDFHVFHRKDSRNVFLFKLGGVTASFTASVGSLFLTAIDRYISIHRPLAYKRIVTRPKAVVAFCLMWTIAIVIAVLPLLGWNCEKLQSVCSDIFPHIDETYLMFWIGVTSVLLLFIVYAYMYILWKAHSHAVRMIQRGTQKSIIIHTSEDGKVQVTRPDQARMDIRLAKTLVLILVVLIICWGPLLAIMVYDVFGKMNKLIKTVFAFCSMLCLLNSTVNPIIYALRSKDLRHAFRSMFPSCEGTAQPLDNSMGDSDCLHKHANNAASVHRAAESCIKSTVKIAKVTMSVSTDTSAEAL
Method: Receptor antagonism: Evaluation of the antagonist activity of compounds at the human CB1 receptor expressed in transfected CHO cells, determined by measuring their effects on agonist-induced cAMP modulation using the HTRF detection method.
Thereafter, the reference agonist CP 55940 and the adenylyl cyclase activator NKH 477 are added at respective final concentrations of 3 nM and 3 μM.
For basal control measurements, CP 55940 is omitted from the wells containing 3 μM AM 281.
Following 20 min incubation at 37° C., the cells are lysed and the fluorescence acceptor (D2-labeled cAMP) and fluorescence donor (anti-cAMP antibody labeled with europium cryptate) are added.
After 60 min at room temperature, the fluorescence transfer is measured at λex=337 nm and λem=620 and 665 nm using a microplate reader (Rubystar, BMG). The cAMP concentration is determined by dividing the signal measured at 665 nm by that measured at 620 nm (ratio).
The standard reference antagonist is AM 281, which is tested in each experiment at several concentrations to generate a concentration-response curve from which its IC50 value is calculated.

Row | Structure (SMILES) | Ki [1] | Ki [2] | IC50 (human CB1 receptor)
1 | COc1nc(Cn2nc3c(-c4cc(C)nc(C)c4)c(-c4ccccc4)nc(N)n3c2=O)ccc1F [Example 1-7, 5-amino-8-(2,6-dimethyl-4-pyridyl)-2-[(5-fluoro-6-methoxy-2-pyridyl)methyl]-7-phenyl-[1,2,4]triazolo[4,3-c]pyrimidin-3-one] | 398 nM | 3.98 nM | 3200 nM
2 | CCOC(=O)N(C)CCn1nc2c(-c3cc(C)nc(C)c3)c(-c3ccccc3)nc(N)n2c1=O [Example 2-13, ethyl N-[2-[5-amino-8-(2,6-dimethyl-4-pyridyl)-3-oxo-7-phenyl-[1,2,4]triazolo[4,3-c]pyrimidin-2-yl]ethyl]-N-methyl-carbamate] | 501 nM | 15.8 nM | > 100000 nM
3 | Cc1cc(-c2c(-c3nc(C)cs3)nc(N)n3c(=O)n(CCC(F)(F)F)nc23)cc(C)n1 [Example 2-44, 5-amino-8-(2,6-dimethyl-4-pyridyl)-7-(4-methylthiazol-2-yl)-2-(3,3,3-trifluoropropyl)-[1,2,4]triazolo[4,3-c]pyrimidin-3-one] | – | 20 nM | > 100000 nM
4 | Cc1cc(-c2c(-c3ccccc3)nc(N)n3c(=O)n(CCC(F)(F)F)nc23)cc(C)[n+]1[O-] [Example 2-56, 5-amino-8-(2,6-dimethyl-1-oxido-pyridin-1-ium-4-yl)-7-phenyl-2-(3,3,3-trifluoropropyl)-[1,2,4]triazolo[4,3-c]pyrimidin-3-one] | 316 nM | 12.6 nM | > 100000 nM
5 | Cc1cc(-c2c(-c3ccccc3)nc(N)n3c(=O)n(C[C@@H]4COCCN4C)nc23)cc(C)n1 [Example 2-80, 5-amino-8-(2,6-dimethyl-4-pyridyl)-2-[[(3R)-4-methylmorpholin-3-yl]methyl]-7-phenyl-[1,2,4]triazolo[4,3-c]pyrimidin-3-one] | 200 nM | 7.94 nM | > 100000 nM
6 | Cc1cc(-c2c(-c3ccccc3)nc(N)n3c(=O)n(CC(=O)N(C)C)nc23)cc(C)n1 [Example 2-25, 2-[5-amino-8-(2,6-dimethyl-4-pyridyl)-3-oxo-7-phenyl-[1,2,4]triazolo[4,3-c]pyrimidin-2-yl]-N,N-dimethyl-acetamide] | – | 10 nM | > 100000 nM
7 | Cc1cc(-c2c(-c3ccc(F)cc3)nc(N)n3c(=O)n(CCC(F)(F)F)nc23)cc(CO)n1 [Example 2-64, 5-amino-7-(4-fluorophenyl)-8-[2-(hydroxymethyl)-6-methyl-4-pyridyl]-2-(3,3,3-trifluoropropyl)-[1,2,4]triazolo[4,3-c]pyrimidin-3-one] | > 1260 nM | 1.58 nM | 37400 nM
8 | CCN(C)c1nc(N)n2c(=O)n(CCC(F)(F)F)nc2c1-c1cc(C)nc(C)c1 [Example 3-4, 5-amino-8-(2,6-dimethyl-4-pyridyl)-7-[ethyl(methyl)amino]-2-(3,3,3-trifluoropropyl)-[1,2,4]triazolo[4,3-c]pyrimidin-3-one] | > 3160 nM | 126 nM | > 100000 nM
9 | COCCn1nc2c(-c3cc(C)nc(C)c3)c(-c3ccccc3)nc(N)n2c1=O [Example 2-10, 5-amino-8-(2,6-dimethyl-4-pyridyl)-2-(2-methoxyethyl)-7-phenyl-[1,2,4]triazolo[4,3-c]pyrimidin-3-one] | 251 nM | 10 nM | > 100000 nM
10 | Cc1cc(-c2c(-c3ccccn3)nc(N)n3c(=O)n(CCC(F)(F)F)nc23)cc(C)n1 [Example 2-37, 5-amino-8-(2,6-dimethyl-4-pyridyl)-7-(2-pyridyl)-2-(3,3,3-trifluoropropyl)-[1,2,4]triazolo[4,3-c]pyrimidin-3-one] | > 3160 nM | 31.6 nM | > 100000 nM
11 | CCN(C)CCn1nc2c(-c3cc(C)nc(C)c3)c(-c3ccccc3)nc(N)n2c1=O [Example 2-18, 5-amino-8-(2,6-dimethyl-4-pyridyl)-2-[2-[ethyl(methyl)amino]ethyl]-7-phenyl-[1,2,4]triazolo[4,3-c]pyrimidin-3-one] | – | 6.31 nM | > 100000 nM
12 | Cc1cc(-c2c(-c3ccccc3)nc(N)n3c(=O)n(CCN[C@@H](C)c4cccc(C)n4)nc23)cc(C)n1 [Example 1-94, 5-amino-8-(2,6-dimethyl-4-pyridyl)-2-[2-[[(1S)-1-(6-methyl-2-pyridyl)ethyl]amino]ethyl]-7-phenyl-[1,2,4]triazolo[4,3-c]pyrimidin-3-one] | 398 nM | 10 nM | –
13 | Cc1cc(-c2c(-c3ccccc3)nc(N)n3c(=O)n(CCC(C)C)nc23)cc(C)n1 [Example 2-5, 5-amino-8-(2,6-dimethyl-4-pyridyl)-2-isopentyl-7-phenyl-[1,2,4]triazolo[4,3-c]pyrimidin-3-one] | 39.8 nM | 0.794 nM | –
14 | Cc1cc(N2CCC(NCCn3nc4c(-c5cc(C)nc(C)c5)c(-c5ccccc5)nc(N)n4c3=O)CC2)[nH]n1 [Example 1-95, 5-amino-8-(2,6-dimethyl-4-pyridyl)-2-[2-[[1-(3-methyl-1H-pyrazol-5-yl)-4-piperidyl]amino]ethyl]-7-phenyl-[1,2,4]triazolo[4,3-c]pyrimidin-3-one] | > 2000 nM | 316 nM | –
15 | Cc1cc(-c2c(-c3ccc(C#N)cc3)nc(N)n3c(=O)n(CCC(F)(F)F)nc23)cc(C)n1 [Example 2-36, 4-[5-amino-8-(2,6-dimethyl-4-pyridyl)-3-oxo-2-(3,3,3-trifluoropropyl)-[1,2,4]triazolo[4,3-c]pyrimidin-7-yl]benzonitrile] | > 3160 nM | 20 nM | –
16 | COc1ccc(Cn2nc3c(-c4cc(C)nc(C)c4)c(-c4ccccc4)nc(N)n3c2=O)cc1 [Example 1-3, 5-amino-8-(2,6-dimethyl-4-pyridyl)-2-[(4-methoxyphenyl)methyl]-7-phenyl-[1,2,4]triazolo[4,3-c]pyrimidin-3-one] | 25.1 nM | 6.31 nM | –
17 | Cc1cc(-c2c(-c3ccccc3)nc(N)n3c(=O)n(Cc4ncc(F)cn4)nc23)cc(C)n1 [Example 1-35, 5-amino-8-(2,6-dimethyl-4-pyridyl)-2-[(5-fluoropyrimidin-2-yl)methyl]-7-phenyl-[1,2,4]triazolo[4,3-c]pyrimidin-3-one] | 1000 nM | 15.8 nM | –
18 | Cc1cc(-c2c(-c3ccccc3)nc(N)n3c(=O)n(Cc4ccc(F)c(N)n4)nc23)cc(C)n1 [Example 1-36, 5-amino-2-[(6-amino-5-fluoro-2-pyridyl)methyl]-8-(2,6-dimethyl-4-pyridyl)-7-phenyl-[1,2,4]triazolo[4,3-c]pyrimidin-3-one] | 100 nM | 0.251 nM | –
19 | Cc1cc(-c2c(-c3ccc(F)cc3)nc(N)n3c(=O)n(CCc4ccccc4)nc23)cc(C)n1 [Example 1-87, 5-amino-8-(2,6-dimethyl-4-pyridyl)-7-(4-fluorophenyl)-2-(2-phenylethyl)-[1,2,4]triazolo[4,3-c]pyrimidin-3-one] | 501 nM | 15.8 nM | –
20 | CCC(c1ccc(F)cn1)n1nc2c(-c3cc(C)nc(CO)c3)c(-c3ccccc3)nc(N)n2c1=O (single isomer, unassigned) [1-46 iso-1, 5-amino-2-[1-(5-fluoro-2-pyridyl)propyl]-8-[2-(hydroxymethyl)-6-methyl-4-pyridyl]-7-phenyl-[1,2,4]triazolo[4,3-c]pyrimidin-3-one] | > 3160 nM | 398 nM | –
